# Data: patent publication US10864178B2, “Pharmaceutical composition for treatment of cancer containing polyphenol compound as active ingredient” (priority 2016, dated 2020)
# Key:
# [1] = system: common stomach cancer cells (MKN-74 and AGS); assay: Proliferation inhibition, average over common stomach cancer cells; type: cell-based; settings: Homo sapiens; average of MKN-74 and AGS; read-out: IC50 concentration, average
# Procedure: (§1) First, in order to examine the growth inhibitory effect of gossypol against stomach cancer stem cells, two types of common stomach cancer cells (AGS and MKN-74) and two types of stomach cancer stem cells (MKN-1 and SNU-484) were prepared. Each type of cells was cultured in a 96-well plate at a density of 1×10^3 to 1×10^4 cells/well for 24 hours, and treated with 0, 10, 20, 40 or 60 μM of gossypol, and then further cultured for 48 hours. […] Based on the measured absorbance, the IC50 concentration of gossypol, at which the survival rate of each type of cells, is measured, and the results are shown in FIGS. 6 and 7.
# AGS [2] = assay: Proliferation inhibition of common stomach cancer cells, sulforhodamine B assay; type: cell-based; settings: Homo sapiens, 48 hours, read-out: IC50 concentration
# Procedure: as §1
# MKN-74 = assay: as above; type: cell-based; settings: Homo sapiens; MKN-74 common stomach cancer cells; 48 hours; read-out: IC50 concentration
# Procedure: as §1
# [3] = system: MKN28 (moderately differentiated cells); assay: Cell death, Annexin V+PI staining, FACS; type: cell-based, Human
# Procedure: (§2) Each of MKN28 (moderately differentiated cells) and MKN45 (poorly differentiated cells) cell lines (1×10^3 to 1×10^4 cells/plate), described in Example 1-1 above, was cultured in a 100 mm culture dish for 24 hours, and treated with 0, 5, 10 or 20 μM of gossypol, and then diluted in 400 μl of binding buffer (0.1 M Hepes, pH 7.4, 1.4 M NaCl, and 25 mM CaCl2)). The control cells treated with 0 μM of gossypol were divided into four groups which were not stained, stained with Annexin V, stained with PI (propidium iodide) and stained with Annexin V+PI, respectively, and the cells treated with 5, 10 or 20 μM of gossypol were stained with Annexin V+PI. Staining of the cells was performed in a dark room for 10 minutes. The stained cells were subjected to fluorescence activated cell sorting (FACS), thereby determining the ratio of dead cells to total cells. The results are shown in FIGS. 3 and 4 (BD Biosciences, #556547).
# [4] = system: MKN45 (poorly differentiated cells); assay: Cell death, Annexin V+PI staining, FACS; type: cell-based, Human
# Procedure: as §2
# [5] = system: stomach cancer cell lines (MKN28, MKN45 and SNU668); assay: ATP synthesis inhibition (Promega ATP assay kit); type: cell-based, Human; settings: 0, 10 or 20 μM of gossypol, 48 hours
# Procedure: ATP (adenosine triphosphate) is an energy source for organisms, and inhibition of intracellular ATP synthesis leads to a decrease in energy metabolism activity. The ATP synthesis inhibitory effects of gossypol on the stomach cancer cell lines (MKN28, MKN45 and SNU668) described in Example 1-1 were examined.
# Each of MKN28, MKN45 and SNU668 cell lines (1×10^3 to 1×10^4 cells/plate) was cultured in a 60 mm culture dish for 24 hours, treated with 0, 10 or 20 μM of gossypol, and then additionally cultured for 48 hours. Next, the cells were harvested, counted, diluted in 100 μl of RPMI buffer containing 10 vol % FBS, and then transferred to each well of 96-well plate. To each well containing the cells, 100 μl of assay buffer (rL/L reagent+reconstitution buffer) in the Promega ATP assay kit (G7572, Promega, […]., USA) was added, after which the emission of fluorescence was determined by measuring the absorbance at 560 nm.
# AGS [6] = assay: Cell cycle analysis, PI staining, FACS; type: cell-based, Human; settings: 10 μM gossypol, 24 hours
# Procedure: (§3) Each of the 6 different stomach cancer cells lines (MKN28, MKN45, AGS, SNU668, Kato3 and HS746T) (1×10^3 to 1×10^4 cells/well), described in Example 1-1 above, was cultured in a 100 mm culture dish for 24 hours, and treated with 0 or 10 μM of gossypol, and then further cultured for 24 hours. The cells treated with gossypol were harvested, fixed with 70% ethanol, washed with cold 1×PBS, and then stained with PI+RNase solution (DPBS, pH 7.4) in a dark room for 30 minutes. The cells were subjected to fluorescence activated cell sorting (FACS), and the percentage of each cell cycle was analyzed based on the content of DNA.
# MKN45 [7] = assay: Cell cycle analysis, PI staining, FACS; type: cell-based, Human; settings: 10 μM gossypol, 24 hours
# Procedure: as §3
# MKN28 [8] = assay: Cell cycle analysis, PI staining, FACS; type: cell-based, Human; settings: 10 μM gossypol, 24 hours
# Procedure: as §3
# HS746T [9] = assay: Cell cycle analysis, PI staining, FACS; type: cell-based, Human; settings: 10 μM gossypol, 24 hours
# Procedure: as §3
# AGS [10] = assay: Proliferation inhibition, sulforhodamine B assay; type: cell-based; settings: Homo sapiens, 48 hours treatment
# Procedure: (§4) In order to examine the proliferation inhibitory effects of gossypol against stomach cancer cell lines, 6 different stomach cancer cell lines (MKN28, MKN45, AGS, SNU668, Kato3 and HS746T) were prepared. The definition of cell lines known in the Korean Cell Line Bank or the American Type Culture Collection (ATCC) is described in Table 1 below.
# (§5) Each of the 6 different cell lines (1×10^3 to 1×10^4 cells/well) was cultured in a 96-well plate for 24 hours, and treated with 0, 10, 20, 40 or 60 μM of gossypol, and then further cultured for 48 hours.
# Kato3 = assay: Proliferation inhibition, sulforhodamine B assay; type: cell-based; settings: Homo sapiens, 48 hours treatment
# Procedure: as §4, §5
# MKN45 [11] = assay: Proliferation inhibition, sulforhodamine B assay; type: cell-based; settings: Homo sapiens, MKN-45, 48 hours treatment
# Procedure: as §4, §5
# SNU668 = assay: Proliferation inhibition, sulforhodamine B assay; type: cell-based; settings: Homo sapiens, 48 hours treatment
# Procedure: as §4, §5
# MKN28 [12] = assay: Proliferation inhibition, sulforhodamine B assay; type: cell-based; settings: Homo sapiens, MKN-28, 48 hours treatment
# Procedure: as §4, §5
# HS746T [13] = assay: Proliferation inhibition, sulforhodamine B assay; type: cell-based; settings: Homo sapiens, 48 hours treatment
# Procedure: as §4, §5
# PAGS (parental AGS) = assay: Proliferation inhibition, parental AGS cells; type: cell-based; settings: Homo sapiens, read-out: IC50 concentration
# Procedure: as §1
# (§6) On selected AGS cells (hereinafter referred to as SAGS (selected AGS), Cell Death Dis. 2015 Jul. 2; 6:e1805) selected from the common stomach cancer cell line AGS (hereinafter referred to as PAGS (parental AGS)) by analyzing phenotypes, including the cancer stem cell marker expression, tumor spheroid formation and standard anticancer agent resistance of cancer cells that survived under 4 weeks of continuous metabolic stress, and tumor formation in immunosuppressed mice, the growth inhibitory effects of gossypol were examined. Cell culture and survival rate measurement methods were performed in the same manner as Example 2-1.
# MKN-1 = assay: Proliferation inhibition of stomach cancer stem cells, sulforhodamine B assay; type: cell-based; settings: Homo sapiens; MKN-1 stomach cancer stem cells; 48 hours; read-out: IC50 concentration
# Procedure: as §1
# SNU-484 = assay: as above; type: cell-based; settings: SNU-484 stomach cancer stem cells; 48 hours; read-out: IC50 concentration
# Procedure: as §1
# SAGS (selected AGS) = assay: Proliferation inhibition, selected AGS cells with the nature of cancer stem cells; type: cell-based; settings: Homo sapiens, read-out: IC50 concentration
# Procedure: as §1, §6
# [14] = system: stomach cancer stem cells (MKN-1 and SNU-484); assay: Proliferation inhibition, average over stomach cancer stem cells; type: cell-based; settings: average of MKN-1 and SNU-484; read-out: IC50 concentration, average
# Procedure: as §1
smiles,measurement,setting,value
Cc1cc2c(C(C)C)c(O)c(O)c(C=O)c2c(O)c1-c1c(C)cc2c(C(C)C)c(O)c(O)c(C=O)c2c1O [gossypol],IC50,[1],5.05 µM
same,IC50,AGS [2],4.5 µM
same,IC50,MKN-74,5.6 µM
same,cell death percentage,[3]; 5 μM gossypol,17.72%
same,cell death percentage,[3]; 10 μM gossypol,28.85%
same,cell death percentage,[3]; 20 μM gossypol,55.62%
same,cell death percentage,[4]; 5 μM gossypol,45.75%
same,cell death percentage,[4]; 10 μM gossypol,65.8%
same,cell death percentage,[4]; 20 μM gossypol,82.22%
same,ATP synthesis,[5],inhibited in proportion to the concentration of gossypol
same,sum of sub G1 and GO/G1 compared to before treatment,AGS [6],increased
same,sum of sub G1 and GO/G1 compared to before treatment,MKN45 [7],increased
same,sum of sub G1 and GO/G1 compared to before treatment,MKN28 [8],decreased
same,sum of sub G1 and GO/G1 compared to before treatment,HS746T [9],increased
same,GI50,AGS [10],6.43 µM
same,GI50,Kato3,3.15 µM
same,GI50,MKN45 [11],4.65 µM
same,GI50,SNU668,4.11 µM
same,GI50,MKN28 [12],5.32 µM
same,GI50,HS746T [13],9.89 µM
same,IC50,PAGS (parental AGS),4.2 µM
same,IC50,MKN-1,2.6 µM
same,IC50,SNU-484,2.7 µM
same,IC50,SAGS (selected AGS),2.8 µM
same,IC50,[14],2.65 µM
